In patent publication US20160084855A1, “Compositions and Methods for Modulation and Detection of Immune and Inflammatory Responses” (UNIVERSITY OF CONNECTICUT, priority 2013, published 2016):
Several values for one entry are separate records, joined by “and”; a condition that tells them apart may be missing. Equal values may be shown once.

System: spinal cord CD4+ and Foxp3+ T cells
Test: Flow cytometry of spinal cord mononuclear cells of mice with EAE
Type: in vivo, mouse
From the text: Spinal cord mononuclear cells were derived as previously described in Korn et al. “Myelin-specific regulatory T cells accumulate in the CNS but fail to control autoimmune inflammation” Nat. Med. 13:423-431 (2007) and stained for CD4 (FITC α-CD4 (GK1.5) BD Pharmingen) and Foxp3 (APC α-FoxP3 (FJK-16s; E-Bioscience), or stimulated in culture for 4 hrs with phorbol myristyl acetate and ionomycin prior to staining for Thy1.2 (PE-Cy7 anti-CD 90.2; E-Biosciences) and intracellular IFNγ (APC αIFNγ; BD Pharmingen) and IL-17 (Alexa Fluor 488 α-IL-17A; BD Pharmingen).
To characterize mechanisms by which PE DHC may enhance autoimmune disease in vivo, the experimental studies tested whether the PE DHC-mediated enhancement of EAE was associated with alterations in T cell populations at a site of disease. WT mice were immunized with the usual EAE-inducing protocol and treated on Day 0 with EtOH or PE DHC (250 ng i.p.). Within 5 days after onset of EAE, mice were sacrificed and exsanguinated, their spinal cords were removed, and the mononuclear cells were derived from the spinal cords. These cells were analyzed directly for CD4 and Foxp3 expression by flow cytometry or were stimulated with PMA and ionomycin for 4 hours and then, gating on Thy1.2+ cells, analyzed for intra-cellular interferon gamma (IFNγ) and IL-17 by flow cytometry. […] However, the percentage of CD4+ T cells within the total mononuclear cell populations derived from the spinal cords of PE DHC-treated mice was, on average, greater than the percentage in EtOH-treated mice (as illustrated in Table 2). […] The mean percentage of spinal cord cells that were CD4+ was 41% in EtOH-treated mice and, on average, 6.7% of these were Foxp3+. In contrast, the mean percentage of spinal cord cells that were CD4+ T cells was 52% in PE DHC-treated mice and, on average, 4.3% of these were Foxp3+. It has been reported in Korn et al. “Myelin-specific regulatory T cells accumulate in the CNS but fail to control autoimmune inflammation” Nat. Med. 13:423-431 (2007) that the percentage of spinal cord CD4+ Foxp3+ T cells increased as the disease progressed. […] Based on this observation, it was unlikely that the decrease in the percentage of Foxp3+ in PE-DHC-treated mice was related to differences in disease duration.

phosphoethanolamine dihydroceramide [PE DHC]
Total number of mononuclear cells obtained from the spinal cords, versus EtOH (WT mice, PE DHC 250 ng i.p.): no significant difference
Percentages of spinal cord CD4+ T cells staining for intra-cellular IFNγ or IL-17, versus EtOH (WT mice, PE DHC 250 ng i.p., PMA and ionomycin 4 hours): not significantly different
DISEASE GRADE (individual WT mice at sacrifice, PE DHC 250 ng i.p. Day 0): 3.3 (2×) and 3.5 and 2.9 (2×) and 3.0
% CD4+ in spinal cord (individual WT mice, PE DHC 250 ng i.p. Day 0, 1-5 days after onset of EAE, of total mononuclear cells): 72.00% and 38.00% and 68.86% and 49.54% and 40.83% and 46.50%
% Foxp3+ in spinal cord (individual WT mice, PE DHC 250 ng i.p. Day 0, after gating on CD4+ T cells): 4.53% and 7.52% and 2.75% and 3.45% and 3.21% and 4.27%
